One cell line from the supplement of paper PMC10307832 can be followed below.

What all share (experiment): relative viability (nuclei count vs DMSO), 5 days (fraction); higher = more cells survive
Compound in assay [1]: CC1=CC=C(C=C1)C(=O)CN2C3=C(CCCC3)SC2=N [Pifithrin_alpha] + CC(=O)c1c(C)c2cnc(Nc3ccc(N4CCNCC4)cn3)nc2n(C2CCCC2)c1=O [Palbociclib] (partner 0.5 µM)
The gist of the method: (§1)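 Cells from lung cancer lines were seeded into 1536-well plates and, one day later, dosed by pin tool. Treatments were either a single drug or a fixed dose of an anchor drug with five library-drug doses (not always all listed) in √10 steps. After 5 days, nuclei were stained in a one-step fixation (final 0.05% Triton X-100, 1% formaldehyde, 1 ug/ml Hoechst) and counted on 4× images, and relative viability is the treated-to-vehicle nuclei ratio, as the median of duplicate plates.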

Compound in assay [2]: Nc1nc(Nc2ccc3c(c2)CC[C@@H](N2CCCC2)CC3)nn1-c1cc2c(nn1)-c1ccccc1CCC2 [Bemcentinib] + O=C(CCCCCCC(=O)Nc1ccccc1)NO [Vorinostat] (partner 1 µM)
The gist of the method:
as §1

Compound in assay [3]: CNC(=O)c1ccccc1Sc1ccc2c(/C=C/c3ccccn3)n[nH]c2c1 [Axitinib] + Nc1ncn([C@H]2C[C@H](O)[C@@H](CO)O2)c(=O)n1 [Decitabine] (partner 2 µM)
In short, it runs like this: as §1

Compound in assay [4]: Nc1nc(Nc2ccc3c(c2)CC[C@@H](N2CCCC2)CC3)nn1-c1cc2c(nn1)-c1ccccc1CCC2 [Bemcentinib] + C[C@@H](Oc1cc(-c2cnn(C3CCNCC3)c2)cnc1N)c1c(Cl)ccc(F)c1Cl [Crizotinib] (partner 1 µM)
In short, it runs like this: as §1

Consider NCI-H650, for which the relative viability was determined as 0.371 in assay [1] (first compound 3.162 µM); 0.328 in assay [1] (first compound 10 µM); 0.204 in assay [1] (first compound 31.62 µM); 0.327 in assay [1] (first compound 100 µM); 0.353 in assay [2] (first compound 0.04 µM); 0.442 in assay [2] (first compound 0.1265 µM). Also, the relative viability in assay [2] (first compound 0.4 µM) came to 0.378; in assay [2] (first compound 1.265 µM), 0.374; in assay [2] (first compound 4 µM) it was 0.418; in assay [3] (first compound 0.005 µM), 0.287; in assay [3] (first compound 0.01581 µM) it was 0.335; in assay [3] (first compound 0.05 µM) it was 0.289. Further, the relative viability in assay [3] (first compound 0.1581 µM) worked out at 0.31; in assay [3] (first compound 0.5 µM), 0.306; in assay [4] (first compound 0.04 µM) it was 0.721; in assay [4] (first compound 0.1265 µM) it was 0.785; in assay [4] (first compound 0.4 µM), 0.679; in assay [4] (first compound 1.265 µM), 0.703. The relative viability in assay [4] (first compound 4 µM) amounted to 0.618.
